According to patent US20100272710A1, “COMPOSITIONS AND METHODS FOR TREATING AND PREVENTING AGING-ASSOCIATED DISEASES” (priority 2009, published 2010):
Like-named read-outs stand apart in the source and are kept apart here.

How the values were obtained:
[1] = biological target: glucose 6 phosphate dehydrogenase, G6PD (Homo sapiens, UniProt P11413); assay: G6PD activity in protein extract (NADPH production); conditions: 30 min at 37° C.; for activity of G6PD: protein extract 100 ug
Description: Protein extract (100 _g) was incubated with DHEA or resveratrol at the indicated concentrations, after 30 min at 37° C., the activity of G6PD was measured as described in the methods section.

[2] = test system: Sirt1; assay: Sirt1 expression in organs of treated mice (Western blot); assay type: in vivo; conditions: CD1 mice, 10 mg/Kg i.p., 2 days
Description: (§1) Tissue distribution of Sirt1 and TXNIP in mice and their regulation by resveratrol and DHEA. Mice CD1 strain were injected (i.p.) with 10 mg/Kg of either resveratrol or DHEA and after 2 days, the animals were sacrificed and organs harvested and processed by Western blot for the expression of Sirt1 and TXNIP. Staining with GAPDH was used as a loading control.
(§2) In order to determine whether the observed effects in vitro could be also valid in vivo, we have subjected the nude mice (CD1 strain, Charles River) to treatment with either resveratrol or DHEA (10 mg/Kg each) for 2 days. The animals were then sacrificed and major organs harvested to analyze expression of Sirt1 and TXNIP by Western blot.

[3] = test system: TXNIP; assay: Western blot of TXNIP expression in human embryonic stem cells BG01V; assay type: cell-based
Description: (§3) Effects of limited glucose availability, resveratrol and DHEA on expression of TXNIP and Sirt1 in normal cells. Aortic smooth muscle cells (4A) and human embryonic stem cells (4B) were treated as described in FIG. 1 for cancer cells. Expression Sirt1 and TXNIP were analyzed by Western blot using specific antibodies. Antibody to GAPDH was used as loading control. (Glc: glucose; Resv: Resveratrol).
(§4) To test whether cellular proliferative capacity may account for this difference, we measured expression of Sirt1 and TXNIP in embryonic stem cells known for rapid self renewal ability. The human embryonic stem cells, BG01V, were subjected to glucose restriction or treatment with either resveratrol or DHEA under similar conditions to those described in FIG. 4. […] In contrast, the consistent inhibition of TXNIP by limited glucose availability in cancer cells as well as in differentiated smooth muscle cells and non-differentiated stem cells, is indicative of a potential role of this gene in mediating the anti-aging action of calorie restriction.

[4] = test system: Sirt1; assay type: cell-based; conditions: aortic smooth muscle cells, Western blot
Description: as §3
(§5) In order to obtain information on the physiological relevance of targeting Sirt1 and TXNIP in normal tissues, we investigated the effect of limited glucose availability, resveratrol and DHEA in differentiated aortic smooth muscle cells, and non-differentiated, human embryonic stem cells.

[5] = test system: TXNIP; assay: TXNIP expression in organs of treated mice (Western blot); assay type: in vivo; conditions: CD1 mice, 10 mg/Kg i.p., 2 days
Description: as §1, §2

[6] = test system: TXNIP; assay: Western blot of TXNIP expression in aortic smooth muscle cells; assay type: cell-based
Description: as §3, §5

[7] = test system: Sirt1; assay type: cell-based; conditions: increasing concentrations, Western blot
Description: (§6) SaOS2 cells were incubated in the presence of reduced glucose levels in the culture medium for 48 hours. Expression of TXNIP and Sirt1 were determined by Western blot using specific antibodies. Antibody to _-Actin was used as a loading control.
(§7) The RGC (4C) and SaOS2 (4D) cells were subjected to treatment with increasing concentrations of resveratrol (Resv.) for 48 hours followed by Western blot as described in Panel A.
(§8) SaOS2 cells were treated with increasing amounts of DHEA and probed for expression of Sirt1 and TXNIP; beta-actin was used as a loading control.
(§9) The effects of limited glucose availability (used here to mimic the effect of calorie restriction), resveratrol (an activator of Sirt1) and DHEA (used for hormone replacement therapy), on the expression of TXNIP and Sirt1 were determined by Western blot using specific antibodies to the corresponding proteins (FIG. 4).

[8] = test system: Sirt1; assay: Western blot of Sirt1 expression in human embryonic stem cells BG01V; assay type: cell-based
Description: as §3, §4

[9] = test system: TXNIP; assay: Western blot of TXNIP expression in cancer cells (SaOS2, RGC); assay type: cell-based; conditions: for expression of TXNIP: increasing concentrations, Western blot
Description: as §6, §7, §8
The cells were treated with different concentrations of glucose with or without DHEA. After 48 hours in cultures, proteins were separated by electrophoresis and probed for TXNIP. Staining with beta-actin antibody was used as a loading control.
as §9

[10] = test system: AMPK; assay: Phosphorylation of AMPK in cells (Western blot, anti-phospho-AMPK Thr172); assay type: cell-based; conditions: for AMPK phosphorylation: osteosarcoma cells SaOS2, 48 hours
Description: SaOS2 cells were treated with increasing concentrations of resveratrol for 48 hours, after what, proteins were extracted and probed either with anti-phospho-AMPK (Thr172), or with antibody to AMPK.
RGC cells were incubated with 20 or 100 μM resveratrol or DHEA 100 μM for 48 hours, and then probed for phosphor-AMPK and AMPK as described above.
However, the relevance of this action to the regulation of TXNIP by resveratrol and the possible implication of DHEA in regulating this pathway are not yet investigated. […] Further confirmation of this link will help establish TXNIP inhibition as an important determinant for evaluating the efficacy of putative anti-aging interventions.

[11] = retinal glial cells (RGC), 48 hours

Chain of glucose 6 phosphate dehydrogenase, G6PD (P11413 whole entry): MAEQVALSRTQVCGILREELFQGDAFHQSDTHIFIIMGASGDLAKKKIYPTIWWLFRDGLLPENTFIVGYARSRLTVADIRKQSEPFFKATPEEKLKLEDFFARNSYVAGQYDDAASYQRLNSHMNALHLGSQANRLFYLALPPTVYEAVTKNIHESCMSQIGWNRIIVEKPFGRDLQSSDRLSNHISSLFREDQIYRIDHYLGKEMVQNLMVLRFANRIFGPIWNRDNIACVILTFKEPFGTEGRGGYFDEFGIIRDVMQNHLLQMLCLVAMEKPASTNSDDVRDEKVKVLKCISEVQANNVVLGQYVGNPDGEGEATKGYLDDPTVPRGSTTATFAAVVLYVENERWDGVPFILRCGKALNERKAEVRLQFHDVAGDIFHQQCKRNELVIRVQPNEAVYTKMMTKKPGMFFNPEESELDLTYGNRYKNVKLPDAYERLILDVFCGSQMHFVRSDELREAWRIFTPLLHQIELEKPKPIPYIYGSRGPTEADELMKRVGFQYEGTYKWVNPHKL

Row | Compound | activity of G6PD [1] | inhibitory effect on G6PD observed ([1]; protein extract, assay based on production of NADPH) [%] | expression of Sirt1 in most tissues [2] | expression of TXNIP [3] | expression of Sirt1 [4] | expression of TXNIP in the lung [5] | expression of TXNIP in the muscle [5] | expression of TXNIP [6] | expression of Sirt1 ([7]; SaOS2 cells) | expression of Sirt1 [8] | expression of TXNIP ([9]; SaOS2 cells) | effects of glucose on TXNIP expression after pre-treatment ([9]; cells with different concentrations of glucose with or without DHEA, 48 hours) | AMPK phosphorylation [10] | expression of Sirt1 ([7]; RGC cells, 48 hours) | expression of TXNIP ([9]; RGC cells, 48 hours) | AMPK phosphorylation (p-AMPK) [10, 11] | expression of AMPK [10, 11]
1 | C[C@]12CC[C@H](O)CC1=CC[C@@H]1[C@@H]2CC[C@]2(C)C(=O)CC[C@@H]12 [DHEA, dehydroepiandrosterone] | strongly inhibited and in a dose dependent manner | 50 | not significantly affect | none of these genes was affected | without effect | inhibited the expression | inhibitory effect | without effect | decreased expression | none of these genes was affected | decreased expression | almost completely blocked | without effect |  |  |  | 
2 | Oc1ccc(C=Cc2cc(O)cc(O)c2)cc1 [resveratrol] | no effect |  | not significantly affect | none of these genes was affected | no significant changes in Sirt1 expression | inhibited the expression | only DHEA had an inhibitory effect in the muscle | inhibited the expression of TXNIP in a dose dependent manner | suppressed the expression | none of these genes was affected | stimulatory action at low concentrations and inhibition at higher ones |  | induced AMPK phosphorylation | suppressed the expression | stimulatory action at low concentrations and inhibition at higher ones | readily activates | without affecting expression
